Here are results for 19 compounds from EP4410284A1, “COMPOUND AND METHOD FOR THE TREATMENT OF ZELLWEGER SPECTRUM DISORDER” (Apteeus, priority 2023, dated 2024).

Data set [1] deals with GM16513 cells. The data set can be described thus: Catalase import immunofluorescence, high-content screening (% importing cells). Type of data set: cell-based, human. The settings on record: GM16513 cells, 3 days.
Data set [2] has as its system PEX405 cells. The description is as above. Format: cell-based, human. The settings on record: PEX405 cells, 3 days.
For data set [3], the system named is GM16513 cells. Format: cell-based. The following applies: 3 days, PI positive cells (dead cells).
For data set [4], the system named is PEX405 cells. Format: cell-based. The settings on record: 3 days, PI positive cells (dead cells).

Like-named read-outs stand apart in the source and are kept apart here.

Regarding `COc1cc(C=CC(=O)O)cc(OC)c1O` (stereo in doubt) [Sinapinic acid], the “% Importing cells” value is 21% in the data set on GM16513 cells [1] (1.3 µM), 18% with GM16513 cells [1] (10 µM), 3% in the data set on PEX405 cells [2] (1.3 µM) and 3% in the data set on PEX405 cells [2] (10 µM).
In the case of `O=C(NO)c1cccc2ccccc12` [1-Naphthohydroxamic acid], the “% Importing cells” value with GM16513 cells [1] (1.3 µM) is 12%; in the data set on GM16513 cells [1] (10 µM), 13%; with PEX405 cells [2] (1.3 µM), 3%; in the data set on PEX405 cells [2] (10 µM), 2%. The “% PI+ cells” value worked out at 1% in the data set with GM16513 cells [3] (1.3 µM), 1% with GM16513 cells [3] (10 µM), 0% in the data set on PEX405 cells [4] (1.3 µM) and 0% in the data set with PEX405 cells [4] (10 µM).
On to `O=C(NO)c1cnc(NC2(c3ccccc3)CC2)nc1` [ACY-738], for which the “% Importing cells” value in the data set with GM16513 cells [1] (1.3 µM) was found to be 31%; in the data set on GM16513 cells [1] (10 µM), 85%; in the data set with PEX405 cells [2] (1.3 µM), 5%; in the data set on PEX405 cells [2] (10 µM), 31%. The “% PI+ cells” value with GM16513 cells [3] (1.3 µM) is given as 1%; in the data set with GM16513 cells [3] (10 µM), 3%; in the data set with PEX405 cells [4] (1.3 µM), 1%; in the data set on PEX405 cells [4] (10 µM), 1%.
Turning to `O=C(NO)c1cnc(NC2(c3cccc(F)c3)CCCCC2)nc1` [ACY-775], the “% Importing cells” value in the data set on GM16513 cells [1] (1.3 µM) is reported as 21%; with GM16513 cells [1] (10 µM) it was 47%; in the data set on PEX405 cells [2] (1.3 µM), 4%; with PEX405 cells [2] (10 µM), 9%. For the same compound, the “% PI+ cells” value worked out at 2% in the data set with GM16513 cells [3] (1.3 µM), 2% with GM16513 cells [3] (10 µM), 0% in the data set on PEX405 cells [4] (1.3 µM) and 1% in the data set on PEX405 cells [4] (10 µM).
As for `Nc1ccc(-c2cccs2)cc1NC(=O)c1ccc2nc(N3CCNCC3)ccc2c1` [ACY-957], the “% Importing cells” value stood at 74% with GM16513 cells [1] (1.3 µM), 0% in the data set on GM16513 cells [1] (10 µM), 16% in the data set with PEX405 cells [2] (1.3 µM) and 13% in the data set on PEX405 cells [2] (10 µM). The “% PI+ cells” value is on record as 1% with GM16513 cells [3] (1.3 µM), 38% with GM16513 cells [3] (10 µM), 1% in the data set on PEX405 cells [4] (1.3 µM) and 55% with PEX405 cells [4] (10 µM).
Regarding `CC(C)(C)c1ccc(C(=O)Nc2ccc(C(=O)NO)cc2)cc1` [AES-350], the “% Importing cells” value in the data set on GM16513 cells [1] (1.3 µM) came to 22%; in the data set with GM16513 cells [1] (10 µM) it was 45%; in the data set on PEX405 cells [2] (1.3 µM), 5%; with PEX405 cells [2] (10 µM), 10%. For the same compound, the “% PI+ cells” value with GM16513 cells [3] (1.3 µM) was determined as 2%; in the data set with GM16513 cells [3] (10 µM), 5%; in the data set with PEX405 cells [4] (1.3 µM), 1%; with PEX405 cells [4] (10 µM) it was 1%.
As to `CC(=O)N[C@@H](CCCCN)C(=O)Nc1ccc2c(C)cc(=O)oc2c1` [Ac-Lys-AMC], the “% Importing cells” value came to 18% with GM16513 cells [1] (1.3 µM), 14% in the data set on GM16513 cells [1] (10 µM), 3% in the data set on PEX405 cells [2] (1.3 µM) and 1% with PEX405 cells [2] (10 µM). Further, the “% PI+ cells” value stood at 1% in the data set with GM16513 cells [3] (1.3 µM), 1% with GM16513 cells [3] (10 µM), 0% in the data set on PEX405 cells [4] (1.3 µM) and 0% with PEX405 cells [4] (10 µM).
For the compound `Nc1ccccc1NC(=O)c1cnccn1` [BG45], the “% Importing cells” value in the data set on GM16513 cells [1] (1.3 µM) was 15%; in the data set with GM16513 cells [1] (10 µM), 30%; in the data set on PEX405 cells [2] (1.3 µM), 4%; in the data set on PEX405 cells [2] (10 µM), 5%. Further, the “% PI+ cells” value came out at 1% with GM16513 cells [3] (1.3 µM), 1% in the data set with GM16513 cells [3] (10 µM), 1% in the data set on PEX405 cells [4] (1.3 µM) and 2% in the data set with PEX405 cells [4] (10 µM).
Take `Nc1ccccc1NC(=O)CCCCCCC(=O)Nc1ccccc1` [BML-210]: the “% Importing cells” value in the data set with GM16513 cells [1] (1.3 µM) worked out at 24%; with GM16513 cells [1] (10 µM) it was 73%; with PEX405 cells [2] (1.3 µM) it was 7%; in the data set on PEX405 cells [2] (10 µM) it was 19%. In addition, the “% PI+ cells” value in the data set on GM16513 cells [3] (1.3 µM) is given as 2%; in the data set with GM16513 cells [3] (10 µM), 3%; in the data set with PEX405 cells [4] (1.3 µM) it was 1%; in the data set with PEX405 cells [4] (10 µM), 1%.
On to `CC(=O)Nc1ccc(C(=O)Nc2ccc(F)cc2N)cc1` [BRD3308], for which the “% Importing cells” value in the data set with GM16513 cells [1] (1.3 µM) came out at 12%; with GM16513 cells [1] (10 µM) it was 16%; in the data set with PEX405 cells [2] (1.3 µM), 4%; in the data set on PEX405 cells [2] (10 µM) it was 5%. For the same compound, the “% PI+ cells” value is reported as 2% in the data set on GM16513 cells [3] (1.3 µM), 2% with GM16513 cells [3] (10 µM), 1% in the data set on PEX405 cells [4] (1.3 µM) and 1% in the data set with PEX405 cells [4] (10 µM).
As for `O=C(NO)c1cccc(C(=O)NCCc2ccccc2)c1` [BRD73954], the “% Importing cells” value in the data set with GM16513 cells [1] (1.3 µM) is reported as 19%; with GM16513 cells [1] (10 µM), 23%; with PEX405 cells [2] (1.3 µM), 3%; in the data set on PEX405 cells [2] (10 µM), 4%. The “% PI+ cells” value with GM16513 cells [3] (1.3 µM) was determined as 1%; in the data set with GM16513 cells [3] (10 µM), 1%; in the data set on PEX405 cells [4] (1.3 µM), 0%; in the data set on PEX405 cells [4] (10 µM), 1%.
For `CCN1CCN(C(c2cccnc2)c2cc(Cl)c3cccnc3c2O)CC1` (stereo not drawn) [BRD 4354], the “% Importing cells” value in the data set with GM16513 cells [1] (1.3 µM) was 21%; in the data set on GM16513 cells [1] (10 µM) it was 30%; in the data set on PEX405 cells [2] (1.3 µM) it was 4%; in the data set with PEX405 cells [2] (10 µM) it was 10%. For the same compound, the “% PI+ cells” value with GM16513 cells [3] (1.3 µM) is reported as 1%; in the data set on GM16513 cells [3] (10 µM), 3%; with PEX405 cells [4] (1.3 µM) it was 0%; in the data set with PEX405 cells [4] (10 µM), 3%.
For the compound `CC(=O)Nc1ccc(C(=O)Nc2cc(-c3cccs3)ccc2N)cc1` [BRD-6929], the “% Importing cells” value was 66% in the data set on GM16513 cells [1] (1.3 µM), 88% with GM16513 cells [1] (10 µM), 20% in the data set on PEX405 cells [2] (1.3 µM) and 38% in the data set on PEX405 cells [2] (10 µM). Moreover, the “% PI+ cells” value is listed as 1% in the data set on GM16513 cells [3] (1.3 µM), 3% with GM16513 cells [3] (10 µM), 1% with PEX405 cells [4] (1.3 µM) and 1% in the data set on PEX405 cells [4] (10 µM).
Consider `CCCCOc1ccc(CC(=O)NO)cc1` [Bufexamac], for which the “% Importing cells” value is on record as 26% with GM16513 cells [1] (1.3 µM), 25% with GM16513 cells [1] (10 µM), 4% with PEX405 cells [2] (1.3 µM) and 50% with PEX405 cells [2] (10 µM). Further, the “% PI+ cells” value with GM16513 cells [3] (1.3 µM) was found to be 2%; with GM16513 cells [3] (10 µM) it was 1%; with PEX405 cells [4] (1.3 µM), 1%; in the data set with PEX405 cells [4] (10 µM), 0%.
`CC(C)(C)OC(=O)Nc1ccc(-c2cc(C(=O)NCCCCCCC(=O)NO)no2)cc1` [CAY10603]: the “% Importing cells” value was 73% with GM16513 cells [1] (1.3 µM), 85% with GM16513 cells [1] (10 µM), 22% with PEX405 cells [2] (1.3 µM) and 11% in the data set on PEX405 cells [2] (10 µM). Moreover, the “% PI+ cells” value is reported as 2% in the data set with GM16513 cells [3] (1.3 µM), 31% with GM16513 cells [3] (10 µM), 1% with PEX405 cells [4] (1.3 µM) and 35% with PEX405 cells [4] (10 µM).
`O=C(NO)C(c1ccc(-c2ncc(C(F)(F)F)cn2)cc1)c1ccccc1F` (stereo not drawn) [CHDI-390576]: the “% Importing cells” value stood at 10% in the data set with GM16513 cells [1] (1.3 µM), 4% with GM16513 cells [1] (10 µM), 2% with PEX405 cells [2] (1.3 µM) and 0% with PEX405 cells [2] (10 µM).
`Cc1nn(C)cc1CN1CCC(c2ccc(C(=O)Nc3ccccc3N)cc2)CC1` [CXD101]: the “% PI+ cells” value with GM16513 cells [3] (1.3 µM) was 2%; in the data set on GM16513 cells [3] (10 µM), 7%; in the data set with PEX405 cells [4] (1.3 µM), 0%; in the data set with PEX405 cells [4] (10 µM), 8%. In addition, the “% Importing cells” value amounted to 19% in the data set with PEX405 cells [2] (1.3 µM) and 4% in the data set on PEX405 cells [2] (10 µM).
For `Cc1ccc(C(=O)NCCCCCC(=O)Nc2ccccc2N)cc1` [RG2833], the “% PI+ cells” value with GM16513 cells [3] (1.3 µM) was 1%; in the data set with GM16513 cells [3] (10 µM), 3%.
As to Oxamflatin, the “% Importing cells” value in the data set with GM16513 cells [1] (1.3 µM) is listed as 99%; in the data set with GM16513 cells [1] (10 µM) it was 59%; in the data set with PEX405 cells [2] (1.3 µM) it was 33%; in the data set on PEX405 cells [2] (10 µM) it was 15%.
